This assay deals with human neutrophils. As to the kind of experiment: NETosis assay (free DNA, PicoGreen). The class given is cell-based. The following applies: peptide 2 mM; neutrophils stimulated with PMA and H2O2. The method, then:
Free DNA as a marker for NET formation was measured by PicoGreen as previously described. Briefly, 2.0×10^6 human neutrophils in 96-well plates were stimulated with 12 nM PMA and 0.05% H2O2 in RPMI with or without the indicated peptide variants (2 mM) for 2.5 hr in a 37° C. humified incubator supplemented with 5% CO2, allowing NETosis to occur. Neutrophils in RPMI alone served as a negative control. Fifty units of […] (Fisher) were added to each well to allow for digestion of released extracellular DNA for 10 min at 37° C. The preparation was then aliquoted into an adjacent well and mixed 1:1 with prepared PICO green reagent (Fisher). The fluorescence was then quantified on a BioTek microplate reader at excitation 485 nm/emission 528 nm.

Molecules are shown by their SMILES. Entries after “also recorded” stand apart in the source; their conditions may differ. Bridge positions count the residues as written; N and C are the ends. Square brackets hold non-standard residues; d marks the D form. Peptide text beside a SMILES is read from it. S5 = C=CCCC[C@](C)(N)C(=O)O; Sar = CNCC(=O)O

Consider `CC[C@H](C)[C@H](N)C(=O)N[C@@H](C)C(=O)N[C@@H](CC(C)C)C(=O)N[C@H](C(=O)N[C@@H](CC(C)C)C(=O)N[C@@H](CCC(=O)O)C(=O)N1CCC[C@H]1C(=O)N(C)CC(=O)N[C@@H](CS)C(=O)N[C@@]1(C)CCCC=CCCC[C@@](C)(C(=O)N[C@@H](C)C(=O)O)NC(=O)[C@H](CCCNC(=N)N)NC(=O)[C@H](CCC(=O)O)NC(=O)[C@H](CCC(N)=O)NC1=O)[C@@H](C)CC` [PA-0117, IALILEP(Sar)CS5QERS5A] (H-IALILEP[Sar]C[S5]QER[S5]A-OH; staple 10-14), for which the “reduction of free DNA (marker of NETosis)” value is “did not reduce levels of free DNA; also recorded: did not show a reduction in free DNA”.

For the origin of these results see patent US20230272012A1, “PEPTIDES AND METHODS OF USE” (REALTA LIFE SCIENCES, INC., priority 2020, published 2023).
